Results on 1 compound are retold here after ChEMBL document CHEMBL5120941 (ACS Med Chem Lett, 2022).

Molecules are shown by their SMILES. In brackets after ≈: the same amount, converted by molar mass.

In data set [1] the test system is Staphylococcus aureus. The data set can be described thus: Antibacterial activity against Staphylococcus aureus ATCC 19636 infected Sprague-Dawley rat peritonitis model assessed as increase in animal's survival rate administered iv at 1 hr post-infection and measured after 48 hrs. The class given is functional.
In data set [2] the test system is Staphylococcus aureus. Put plainly: Antibacterial activity against Staphylococcus aureus ATCC 19636 infected ICR mouse septicemia model assessed as increase in animal's survival rate administered iv at 1 hr post-infection and measured after 48 hrs. The class given is functional.
Data set [3] can be described thus: Aqueous solubility of the compound in deionized water at 25 degC. The class given is physicochemical.
The nature of data set [4]: AUC (0 to 24 hrs) in Sprague-Dawley rat at 10 mg/kg, iv by HLPC-MS/MS analysis. The class given is ADME, organism-based. The following applies: in vivo. The arrangement: time < 24 hr, dose 10 mg/kg, route iv.

With `O=C1C=CN(c2c(F)cc(N3C[C@H](CNc4ccon4)OC3=O)c(F)c2F)CC1` [CONTEZOLID], the 50% effective dose (ED50) in data set [1] was 10.3 mg/kg; in data set [2] it was 4.7 mg/kg. This compound also displayed a solubility in data set [3] of 200 µg/mL (≈ 490 µM). The same compound showed an AUC(0-t) at 24 h in data set [4] of 25400 ng·h/mL.
